Test results taken from a compilation of properties of binary mixtures (doi:10.1016/j.molliq.2021.116463).

Assay: xn = mol fraction of the nth substance listed
Settings: 100 kPa

[Cl-].c1c[nH+]c[nH]1 + OCC(O)CO
viscosity [mPa·s]
Settings | 293.2 K | 303.2 K | 313.2 K | 323.2 K | 333.2 K | 343.2 K | 353.2 K
x1 = 0.1667 | 565 | 397 | – | 196 | 149.3 | 127.7 | 116.4
x1 = 0.25 | 429 | 294 | 207 | – | 60.9 | 37.7 | 24.8
x1 = 0.3333 | 321 | 219 | – | – | 49.6 | 31.2 | 20.6
x1 = 0.5 | 472 | 355 | 285 | 141.2 | – | – | 38.2
